In brackets after ≈: the same amount, converted by molar mass. Several values for one entry are separate records, joined by “and”; a condition that tells them apart may be missing. Identical values can stand only once.
Tests used:
[1] = test system: Staphylococcus aureus T3-129 / Staphylococcus spp. MK1; experiment: Synergy studies, checkerboard method (FIC index); type: cell-based; conditions: for FICI: FIC index of antibiotic with NCL812; for Result (interaction with NCL812): antibiotic with NCL812
S. aureus ATCC29213 = experiment: Broth microdilution MIC, Example 7 (NCL analogues), Table 42; type: cell-based, Staphylococcus aureus; conditions: S. aureus ATCC29213, 24 hours
Pseudomonas aeruginosa = experiment: Broth microdilution MIC, Example 7 (NCL812 and analogues); type: cell-based; conditions: Pseudomonas #008, 24 hours
Escherichia coli = experiment: as above; type: cell-based; conditions: E. coli ATCC25922, 24 hours
E. faecalis #32 = experiment: Broth microdilution MIC, Example 7 (NCL analogues), Table 42; type: cell-based, Enterococcus faecalis; conditions: E. faecalis #32, 24 hours
S. pneumoniae isolates [2] = experiment: MBC, Example 5; type: cell-based, Streptococcus pneumoniae; conditions: Streptococcus pneumoniae, isolate D39; Table 28; read-out: MBC
Experimental: (§1) [Micro-broth dilutions and 96 well trays are prepared by the following method: 90 μL of 4% LHB:CAMHB is aliquotted into all wells using a multichannel pipette. 90 μL of working antimicrobial stocks were no serial diluted down the tray by a 1:2 dilution. Negative broth controls and dilution control were taken into account when planning the set up of a 96 well tray.] 10 μL of bacterial suspension was then added to the appropriate wells in the 96 well tray. Appropriate positive (no antimicrobial), negative (no antimicrobial or bacteria) and negative dilution (a serial dilution control of antimicrobial and broth) controls were included in each assay. […] The MBC was determined by a 99.95% inhibition of S. pneumoniae, taking into account the dilution factor. MICs and MBCs were determined in quadruplicate and the mode was taken as the representative value. The MIC50, MIC90 and MIC range and MBC50, MBC90 and MBC range were determined according to CLSI standards. The MIC50 and MIC90, or MBC50 and MBC90, are defined by the lowest concentrations which, when all the MICs and MBCs of the isolates are arranged from lowest to highest, inhibited the 50th and 90th percentile of the total amount of isolates, respectively.

S. pneumoniae isolates [3] = experiment: Micro-broth dilution MIC, Example 5; type: cell-based, Streptococcus pneumoniae; conditions: Streptococcus pneumoniae, isolate D39; Table 28
Experimental: For all in vitro assays, fresh pneumococcal isolates were grown overnight (O/N) on horse blood agar (HBA) plates (39 g/L Columbia blood agar base [Oxoid] 5% [v/v] defribinated horse blood [Oxoid] at 37° C. with 5% supplemented CO2). Mueller-Hinton blood agar with 5% defibrinated sheep blood (MHSBA Roseworthy Media and Blood Service) was used for disk diffusion analysis as directed by Clinical Laboratory Standards Institute (CLSI) standards. Pneumococci were routinely grown in broth consisting of 4% lysed horse blood (LHB) with Cation Adjusted Mueller Hinton Broth (CAHMB, [Difco]) at 37° C. with 5% supplemented CO2. […] Isolates were stored in HSB at −80° C.
as §1

[4] = test system: S. aureus isolates (HA-MRSA, CA-MRSA, methicillin-susceptible staphylococci); experiment: Kirby-Bauer disc diffusion resistotyping, Example 4; type: cell-based, Staphylococcus aureus; conditions: for Total isolates resistant (Kirby-Bauer disc diffusion): all isolates (n = 30)
Experimental: Antibiotic-susceptibility profiling of the isolate collection was undertaken using Kirby-Bauer disc diffusion, as recommended by the Clinical and Laboratory Standards Institute (CLSI) on Mueller-Hinton agar. Isolates were grown overnight on SBA at 37° C. Colonies were suspended in physiological saline. Turbidity was adjusted to a 0.5 McFarland standard and suspensions were spread over the medium. Antibiotic discs according to Table 9 below were transferred onto the inoculated medium and analysed after 24 h incubation at 37° C.

S. pneumoniae isolates [5] = experiment: Disk diffusion susceptibility (CLSI/EUCAST), Example 5; type: cell-based, Streptococcus pneumoniae
Experimental: Isolate susceptibility to 12 different antimicrobials (Table 16) was determined by CLSI and European Committee on Antimicrobial Susceptibility Testing (EUCAST) methods. Antimicrobials were selected based upon the CLSI and EUCAST guidelines. Standardised bacterial suspensions were spread onto MHSBA using a sterile cotton swab. Bacterial suspensions from of Streptococcus pneumoniae were standardised to an OD6O0 between 0.08 and 0.1 using a spectrophotometer and then diluted 1:20. Bacterial colonies were taken from an O/N horse blood agar plate. To ensure the purity of the 1:20 bacterial suspension, 50 μL was spread plated onto horse blood agar and incubated O/N at 37° C. with 5% CO2. The CFU was calculated and compared to the initial plate counts. Antibiotic disks (Purchased from Sigma Aldrich) were placed using a disk dispenser (Purchased from Oxoid) according to CLSI standards. MHSBA plates were incubated for 16 h-24 h at 37° C. in 5% CO2. Zones of complete inhibition were measured in triplicate to the nearest millimeter using a ruler on natural light-reflected growth, and the mode was represented as the diameter for each isolate. Pneumococcal isolates were categorised as sensitive, intermediate (I) or resistant (R) by CLSI standards and quality control (QC) ranges (Table 16).

SMILES: CC1(C)S[C@@H]2[C@H](NC(=O)Cc3ccccc3)C(=O)N2[C@H]1C(=O)O [Penicillin G]
- FICI ([1]; Staphylococcus spp. Strain MK1): 1 and 0.625
- Antibiotic MIC Alone ([1]; Staphylococcus spp. Strain MK1): 0.125 µg/mL and 0.25 µg/mL
- Antibiotic MIC With NCL812 ([1]; Staphylococcus spp. Strain MK1, antibiotic in combination with NCL812): 0.062 µg/mL and 0.031 µg/mL
- Result (interaction with NCL812) ([1]; Staphylococcus spp. Strain MK1): NE (No effect (NE) was defined as 0.5<FICI<4)

SMILES: CC(Nc1cc(Cl)nc(N)n1)c1ccccc1 (stereo not drawn) [NCL 182]
- MIC (μg/ml) at 24 hours S. aureus ATCC29213 (S. aureus ATCC29213): >64 µg/mL
- MIC (μg/ml) at 24 hours Pseudomonas #008 (Pseudomonas aeruginosa): >64 µg/mL
- MIC (μg/ml) at 24 hours E. coli ATCC25922 (Escherichia coli): >64 µg/mL
- MIC (μg/ml) at 24 hours E. faecalis #32 (E. faecalis #32): >64 µg/mL

SMILES: Cl.OC/C(=N\Nc1cc(N/N=C(\CO)c2ccc(Cl)cc2)ncn1)c1ccc(Cl)cc1 [NCL 189]
- MIC (μg/ml) at 24 hours S. aureus ATCC29213 (S. aureus ATCC29213): >64 µg/mL
- MIC (μg/ml) at 24 hours Pseudomonas #008 (Pseudomonas aeruginosa): >64 µg/mL
- MIC (μg/ml) at 24 hours E. coli ATCC25922 (Escherichia coli): >64 µg/mL
- MIC (μg/ml) at 24 hours E. faecalis #32 (E. faecalis #32): >64 µg/mL

SMILES: Cl.N=C(N)NN=C(C(=O)O)c1ccccc1 [NCL 192]
- MIC (μg/ml) at 24 hours S. aureus ATCC29213 (S. aureus ATCC29213): >64 µg/mL
- MIC (μg/ml) at 24 hours Pseudomonas #008 (Pseudomonas aeruginosa): >64 µg/mL
- MIC (μg/ml) at 24 hours E. coli ATCC25922 (Escherichia coli): >64 µg/mL
- MIC (μg/ml) at 24 hours E. faecalis #32 (E. faecalis #32): >64 µg/mL

SMILES: CC[C@H]1OC(=O)[C@H](C)[C@@H](O[C@H]2C[C@@](C)(OC)[C@@H](O)[C@H](C)O2)[C@H](C)[C@@H](O[C@@H]2O[C@H](C)C[C@H](N(C)C)[C@H]2O)[C@](C)(O)C[C@@H](C)C(=O)[C@H](C)[C@@H](O)[C@]1(C)O [Erythromycin]
- MBC (S. pneumoniae isolates [2]): 2.75 ng/mL (≈ 0.00375 µM)
- MIC (S. pneumoniae isolates [3]): 2.75 ng/mL (≈ 0.00375 µM)
- isolates resistant (Kirby-Bauer disc diffusion) ([4]; CA-MRSA (n = 10)): 100.00%
- isolates resistant (Kirby-Bauer disc diffusion) ([4]; HA-MRSA (n = 10)): 80.00%
- isolates resistant (Kirby-Bauer disc diffusion) ([4]; Methicillin-susceptible staphylococci (n = 10)): 40.00%
- Total isolates resistant (Kirby-Bauer disc diffusion) [4]: 73.33%
- Total isolates resistant (Kirby-Bauer disc diffusion) ([4]; listed as erythromycin): 73.33%
- disk diffusion zone diameter (S. pneumoniae isolates [5]; A66.1): 33 mm
- disk diffusion zone diameter (S. pneumoniae isolates [5]; D39): 35 mm
- disk diffusion zone diameter (S. pneumoniae isolates [5]; EF3030): 30 mm
- disk diffusion zone diameter (S. pneumoniae isolates [5]; L82016): 29 mm
- disk diffusion zone diameter (S. pneumoniae isolates [5]; P9): 32 mm
- disk diffusion zone diameter (S. pneumoniae isolates [5]; P21): 35 mm
- disk diffusion zone diameter (S. pneumoniae isolates [5]; TIGR4): 34 mm
- disk diffusion zone diameter (S. pneumoniae isolates [5]; WCH16): 34 mm
- disk diffusion zone diameter (S. pneumoniae isolates [5]; WCH43): 29 mm
- disk diffusion zone diameter (S. pneumoniae isolates [5]; WCH46): 27 mm
- disk diffusion zone diameter (S. pneumoniae isolates [5]; WCH57): 41 mm
- disk diffusion zone diameter (S. pneumoniae isolates [5]; WCH77): 37 mm
- disk diffusion zone diameter (S. pneumoniae isolates [5]; WCH86): 30 mm
- disk diffusion zone diameter (S. pneumoniae isolates [5]; WCH89): 35 mm
- disk diffusion zone diameter (S. pneumoniae isolates [5]; WCH92): 28 mm
- disk diffusion zone diameter (S. pneumoniae isolates [5]; WCH137): 34 mm
- disk diffusion zone diameter (S. pneumoniae isolates [5]; WCH158): 34 mm
- disk diffusion zone diameter (S. pneumoniae isolates [5]; WCH184): 10 mm
- disk diffusion susceptibility category (S. pneumoniae isolates [5]; WCH184 (Table 19)): R
- disk diffusion zone diameter (S. pneumoniae isolates [5]; WCH211): 33 mm
- disk diffusion zone diameter (S. pneumoniae isolates [5]; WU2): 34 mm
- Resistance status to Erythromycin (S. pneumoniae isolates [5]; isolate D39): Sensitive
- FICI ([1]; S. aureus strain T3-29): 0.75 and 0.562 and 0.5 and 0.531
- Antibiotic MIC Alone ([1]; S. aureus strain T3-29): 0.25 µg/mL
- Result (interaction with NCL812) ([1]; S. aureus strain T3-29): NE (No effect (NE) was defined as 0.5<FICI<4)
